What all share (assay type): cell-based
The target in one assay is T1, Human MCT4 (Homo sapiens, UniProt O15427).
T1 construct: expressed in transfected cells
T1 sequence (O15427 2-465 limits assumed): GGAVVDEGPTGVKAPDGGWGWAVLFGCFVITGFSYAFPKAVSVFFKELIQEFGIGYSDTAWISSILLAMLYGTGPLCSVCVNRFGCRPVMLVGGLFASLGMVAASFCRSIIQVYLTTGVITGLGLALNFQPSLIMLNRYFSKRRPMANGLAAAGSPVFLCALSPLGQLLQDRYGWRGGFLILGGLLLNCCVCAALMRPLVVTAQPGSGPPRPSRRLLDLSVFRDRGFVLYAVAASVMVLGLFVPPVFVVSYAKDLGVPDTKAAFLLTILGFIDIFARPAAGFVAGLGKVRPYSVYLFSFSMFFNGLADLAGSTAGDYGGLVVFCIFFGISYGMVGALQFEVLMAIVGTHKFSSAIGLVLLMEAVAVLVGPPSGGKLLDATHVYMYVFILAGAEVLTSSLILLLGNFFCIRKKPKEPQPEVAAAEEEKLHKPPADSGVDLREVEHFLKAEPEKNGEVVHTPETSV
T1 sequence (P26453 23-388 partner): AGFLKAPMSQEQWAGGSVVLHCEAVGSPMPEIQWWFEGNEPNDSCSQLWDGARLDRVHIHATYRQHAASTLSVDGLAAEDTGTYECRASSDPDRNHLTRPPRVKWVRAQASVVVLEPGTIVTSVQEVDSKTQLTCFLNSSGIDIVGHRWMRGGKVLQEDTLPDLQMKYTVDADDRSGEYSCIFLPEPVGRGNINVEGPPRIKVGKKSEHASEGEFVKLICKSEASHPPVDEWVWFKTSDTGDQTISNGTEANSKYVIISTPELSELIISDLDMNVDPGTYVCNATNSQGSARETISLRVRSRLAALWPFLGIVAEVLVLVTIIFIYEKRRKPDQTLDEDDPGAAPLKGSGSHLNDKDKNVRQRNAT
In words: Inhibition of 3BP import (rescue of viability) in MCT4-overexpressing INS-1 cells. Conditions: INS-1 cells over-expressing human MCT4, rescue from LC100 3BP. As for the experimental part:
(§1) Human MCT1-4 were stably expressed in INS-1 rat pancreatic islet B-cells, which are deficient in endogenous MCT expression. 3-Bromopyruvate (3BP), a highly reactive and cytotoxic monocarboxylate, can enter the INS-1 cells via the overexpressed MCT isoform, resulting in rapid cell death. However, prevention of 3BP transport into the cell by an MCT inhibitor can prevent 3BP-mediated cell death (FIG. 16).
(§2) INS-1 cells over-expressing an MCT paralog were treated with a titration of 3BP to determine the lowest concentration that results in 100% cell killing (LC100). The INS-1 cells were then pre-treated with a titration of Compound 67A before exposure to the LC100 concentration of 3BP specific for that MCT-over-expressing cell line, and rescue of cell viability was measured (FIG. 17).

In the next assay the target is T2, human MCT1 (Homo sapiens, UniProt P53985).
T2 construct: expressed in transfected cells
T2 sequence (P53985 1-500): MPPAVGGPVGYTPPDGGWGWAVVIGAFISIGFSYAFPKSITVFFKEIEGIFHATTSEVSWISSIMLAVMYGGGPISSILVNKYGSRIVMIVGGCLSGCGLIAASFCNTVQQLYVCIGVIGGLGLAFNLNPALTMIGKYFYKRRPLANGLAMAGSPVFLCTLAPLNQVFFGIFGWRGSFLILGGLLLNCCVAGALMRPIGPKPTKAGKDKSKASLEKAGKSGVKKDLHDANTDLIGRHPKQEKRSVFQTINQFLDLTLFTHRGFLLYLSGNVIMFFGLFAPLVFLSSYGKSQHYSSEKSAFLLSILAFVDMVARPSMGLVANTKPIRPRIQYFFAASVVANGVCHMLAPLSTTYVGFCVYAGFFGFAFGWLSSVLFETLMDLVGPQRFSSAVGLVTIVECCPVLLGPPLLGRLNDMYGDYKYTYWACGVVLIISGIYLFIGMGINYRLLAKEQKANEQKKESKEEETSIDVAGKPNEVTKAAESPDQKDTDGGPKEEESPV
T2 sequence (P26453 23-388 partner): T1 sequence (P26453 23-388 partner)
The experiment in a line: Inhibition of 3BP import (rescue of viability) in MCT1-overexpressing INS-1 cells. Particulars: INS-1 cells over-expressing human MCT1, rescue from LC100 3BP. The method, then:
as §1, §2

In the next assay the target is T3, Human MCT3 (Homo sapiens, UniProt O95907).
T3 construct: expressed in transfected cells
T3 sequence (O95907 1-504): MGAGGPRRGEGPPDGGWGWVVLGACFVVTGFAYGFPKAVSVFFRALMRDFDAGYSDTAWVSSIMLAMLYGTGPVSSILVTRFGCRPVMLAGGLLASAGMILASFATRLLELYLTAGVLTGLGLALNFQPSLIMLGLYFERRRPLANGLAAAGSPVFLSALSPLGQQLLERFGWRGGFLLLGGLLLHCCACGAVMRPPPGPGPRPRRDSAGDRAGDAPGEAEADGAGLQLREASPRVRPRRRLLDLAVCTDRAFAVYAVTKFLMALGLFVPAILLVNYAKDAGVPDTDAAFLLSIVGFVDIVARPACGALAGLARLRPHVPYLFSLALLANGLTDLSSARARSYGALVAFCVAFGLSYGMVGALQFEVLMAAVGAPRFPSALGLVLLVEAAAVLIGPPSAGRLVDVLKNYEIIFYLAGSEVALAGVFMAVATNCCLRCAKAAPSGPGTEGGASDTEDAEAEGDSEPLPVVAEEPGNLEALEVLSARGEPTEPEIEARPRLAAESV
T3 sequence (P26453 23-388 partner): T1 sequence (P26453 23-388 partner)
The experiment in a line: Inhibition of 3BP import (rescue of viability) in MCT3-overexpressing INS-1 cells. Particulars: INS-1 cells over-expressing human MCT3, rescue from LC100 3BP. As for the experimental part: as §1, §2

For a further assay, the target named is T4, Human MCT2 (Homo sapiens, UniProt O60669).
T4 construct: expressed in transfected cells
T4 sequence (O60669 1-478): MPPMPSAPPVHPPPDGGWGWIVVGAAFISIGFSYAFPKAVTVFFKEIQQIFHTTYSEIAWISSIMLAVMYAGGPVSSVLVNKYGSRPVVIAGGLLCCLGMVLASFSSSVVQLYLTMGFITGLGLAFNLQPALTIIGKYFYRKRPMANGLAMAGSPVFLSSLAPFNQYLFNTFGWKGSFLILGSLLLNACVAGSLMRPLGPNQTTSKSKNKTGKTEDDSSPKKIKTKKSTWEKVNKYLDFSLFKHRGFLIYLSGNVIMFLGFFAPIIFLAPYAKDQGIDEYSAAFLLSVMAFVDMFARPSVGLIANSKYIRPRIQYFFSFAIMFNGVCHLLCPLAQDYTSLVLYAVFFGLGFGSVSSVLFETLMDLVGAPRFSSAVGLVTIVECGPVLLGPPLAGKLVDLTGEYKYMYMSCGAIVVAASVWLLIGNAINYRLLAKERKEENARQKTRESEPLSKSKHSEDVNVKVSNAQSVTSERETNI
The experiment in a line: Inhibition of 3BP import (rescue of viability) in MCT2-overexpressing INS-1 cells. Conditions: INS-1 cells over-expressing human MCT2, rescue from LC100 3BP. The method, then: as §1, §2

Bounds are passed on as bounds.

Consider 3 molecules from patent US20250186404A1, “METHODS OF USING A (THIAZOLYL)BENZENESULFONAMIDE DERIVATIVE” (Cyteir Therapeutics, Inc., priority 2023, published 2025).

For orientation: IC50 means the concentration that inhibits the measured activity by half. Low values mean greater potency, high ones weaker potency. Consider AZD3965, for which the IC50 at Human MCT4 was greater than 33 µM; on human MCT1, less than 0.1 µM; on Human MCT3, greater than 33 µM; against Human MCT2, 1 to 10 µM.

Take `O=C(Nc1ccccc1C(=O)O)c1cc(S(=O)(=O)c2ccccc2)ccc1Cl` [BAY8002]: the IC50 against Human MCT4 is greater than 33 µM; against human MCT1 it was 1 to 10 µM; against Human MCT3, greater than 33 µM; at Human MCT2, 1 to 10 µM.

Take `CC(C)OC(=O)Nc1ccc(-c2cnc([C@H]3CC[C@H](NC(=O)OC(C)C)CC3)s2)c(S(=O)(=O)NC(C)(C)C)c1` [Compound 67A]: the IC50 on Human MCT4 was 1 to 10 µM; at human MCT1 it was 0.1 to 1 µM; at Human MCT3 it was 10 to 33 µM; on Human MCT2, greater than 33 µM.
